Test results: patent US11739132B2, “Separation moieties and methods of use thereof” (Werewolf Therapeutics, Inc., priority 2019, dated 2023)
No end group written: not given here.

Tests used:
[1] = test system: conditioned media from MC38, CT26, CT26 pLVX MMP9-5T4+dox and myofibroblast cell lines; assay: FRET end-point screen of conditioned media; assay type: biochemical, mouse; details: conditioned media
Excerpt: Proteolytic activity was screened in the conditioned media samples by fluorescent resonance energy transfer (FRET) assays with the substrates listed in Table 10.
(§1) Conditioned media and cell lysate samples were received from Charles River Laboratories for the murine colon cancer cell lines: MC38 (epithelial), CT26 (fibroblast), and CT26 transduced with a lentivirus for doxycyclin-inducible expression of MMP9 (CT26 pLVX MMP9-5T4+dox). An immortalized mouse intestinal myofibroblast cell line (ABM Good #T0565) was used as a control stromal cell line, grown under manufacturer recommended conditions. Conditioned media and cell lysate samples were also received for screening purposes from ABM Good for the immortalized mouse colonic epithelial cell line YAMC (ABM Good #T0567).
(§2) Conditioned media samples were prepared according to the standard protocol using logarithmic phase cells. Briefly, cells were grown for 16h in either serum-free media or in complete media containing 10% fetal bovine serum (FBS). After conditioned media collection, the adherent cells were washed then lysed on plate with non-denaturing lysis buffer to produce a lysed “cell pellet” to capture any activity that remained associated with the cells. All cell culture-derived conditioned media samples, cell lysates from Charles River Laboratories, and cell lysates derived internally were processed with identical methods, to allow comparison between samples.
The resulting conditioned media was buffer exchanged with PBS and concentrated to 10× the original titer as a stock solution.
FBS background controls were therefore used for baseline subtraction at each concentration of substrate throughout the FRET experiments.
(§3) In the end-point screening assays, a fixed titer of 10× concentrated sample and a substrate concentration of 10 μM was used. Values reported in the end-point experiments are initial velocity measurements, in relative fluorescence units (RFU) per second. End-point measurements are a starting point for a screen, but the rate of the reaction is non-linearly related to substrate concentration. Therefore, a more accurate representation of activity would be given by steady-state kinetic measurements covering a range of substrate concentrations. To compare activity across cell lines, the data were treated with a Michaelis-Menten model, and the concentration of equivalent enzyme units [E0] was solved.

[2] = test system: conditioned media from tumor, myofibroblast and YAMC cell lines; assay: FRET steady-state kinetics of conditioned media (enzyme equivalents); assay type: biochemical, mouse; details: for Secreted activity in conditioned media, steady-state kinetics: tumor cell lines
Excerpt: as §1, §3
Accordingly, initial velocity was measured as a function of substrate concentration, using a 2-fold dilution series from 250 to 1 μM. Data were fitted using non-linear least squares fitting with GraphPad Prism software v 8.0 to the Michaelis-Menten equation:
[formula] where kcat is the rate of product formation under steady-state conditions in units (s^−1), and KM is the Michaelis constant that gives the substrate concentration in molar units (M) at which half maximum velocity of the reaction is produced for a given enzyme, [E0] is the enzyme concentration, and [S] the substrate concentration in (M).
In the assays where purified recombinant enzyme is used, the Michaelis-Menten parameters are as classically defined above. For conditioned media samples, the effective titer of conditioned media per assay was adjusted to approximately a 2× concentrate of the original unprocessed media samples to assure that the detection range matched the signal produced. The enzyme component in the calculation is redefined as a mixture of possible proteases that contribute to the cumulative observed activity, each with intrinsic reactivity toward a substrate. In this case, it is more appropriate to consider kcat and KM as macroscopic constants that represent the overall efficiency of catalysis, and E0 is an enzyme equivalent, expressed in units of concentration. To solve the data fit, kcat/KM can be fixed at that of the recombinant enzyme and enzyme equivalents per cell culture volume can be output. The effective titer of enzyme equivalents in this case can be used to compare the activity produced by the different cell lines.
An immortalized mouse colonic epithelial cell line (YAMC) was used to test activity in the presence of additional control “normal” epithelial cells. YAMC's are given the calculated enzyme equivalents (nM) resulting from all of these steady state experiments, to allow for comparison of the amount of equivalent activity per sample. For example, the YAMC control epithelial cell line produced activity with the ADAM17_2 substrate equivalent to that of 0.52±0.03 nM of ADAM17 recombinant enzyme. This cell line compares directly to MC38, also of epithelial origin, which had activity equivalent to that of 0.32±0.03 nM of ADAM17 recombinant enzyme. […] This cell line required non-standard cell culture conditions, including growth with murine IFNγ, and at low temperature to maintain, and may not be fully representative of epithelial cell lines.

[3] = test system: cell lysates of MC38, CT26, CT26-MMP9+ and myofibroblast cell lines; assay: FRET assay of cell lysates (cell-associated activity); assay type: biochemical, mouse; details: for Cleavage activity detected in cell lysates: four cell lines
Excerpt: as §1, §2
To test for cell pellet-associated FAPa activity, the cell lysates were clarified by ultracentrifugation and then assayed neat in the FRET assay. […] A modest 2-fold greater activity was detected in the three tumor cell lines over the myofibroblast cell line. For comparison, CTSL1 activity was also tested in the cell lysates. CTSL1 is a lysosomal enzyme; therefore, activity toward CTSL1_1 was expected to be similarly abundant in all four cell lines. The ratio of CTSL1_1 cleavage in tumor vs control cell lines in this screening format was ˜1× (grey bars, left-hand bar of each pair, FIG. 41). FAPα (fibroblast activating protein-alpha) is a marker for fibroblast (CT26) and myofibroblast cell lines.

CTSL1 [4] = target: T1, CTSL1 (Homo sapiens, UniProt P07711); assay: In vitro FRET kinetics with CTSL1; assay type: biochemical; details: 8-mer FRET peptide, Mca/Dnp pair
Procedure: (§4) Enzymes were activated and assayed following the manufacturer's recommendations.
(§5) For CTSL1, enzyme was activated by pre-incubation in assay buffer (50 mM MES, 5 mM DTT, 1 mM EDTA, pH=6) for 15 min. MSP-MS reactions were then started with the mixing of enzyme and substrate, at final CTSL1 concentration of 0.04 ng/μl (0.77 nM), and peptide substrate concentration at 500 nM.
Additional in vitro kinetic experiments were performed to characterize a new candidate motif for CTSL1 enzyme; the CTSL1_2 motif has the sequence […] (SEQ ID NO: 199). […] Yet, initial experiments with the CTSL1_2 FRET substrate were inconclusive, possibly due to artifacts in the FRET assay; therefore, a new FRET peptide construct was designed with the 9-mer sequence […] (SEQ ID NO: 236).
All of the FRET substrates used in these studies have a methoxycoumarin (Mca) fluorophore and dinitrophenyl-lysyl (Dnp) quencher pair at the N- and C-termini of the sequences, respectively.

CTSL1 [5] = target: T1, CTSL1; assay: 30-mer tandem linker library MSP-MS, CTSL1; assay type: biochemical
Procedure: (§6) Protease specificity screening was performed using Multiplexed Substrate Profiling by Mass Spectrometry (MSP-MS), the method described in, e.g. O'Donoghue A. J. et al., Nat Methods., 2012; 9(11): 1095-1100. This method employs a physico-chemically diverse peptide library as substrates for proteases, and reactions are monitored over time with mass spectrometric detection of cleaved products. The resulting cleavages are assessed for specific cleavage in the enzyme-treated sample by comparison with results from a no-enzyme control incubation.
as §4, §5
This hypothesis was tested in the context of the hybrid linker design experiment. Shown in FIG. 46 are the results of cleavage of two matched 30-mer peptides with the following sequences:
(§7) To analyze the catalytic efficiency of candidate tandem linker designs, a tailored library approach using MSP-MS was applied. For the tailored library, a set of nineteen synthetic peptides, 30 amino acids in length (30-mers), were designed to test whether sequence context affects the efficiency of cleavage. Peptides were assayed in a multiplex format together as a substrate library with individual recombinant enzymes, using MSP-MS. For quantitative comparisons, kinetic analysis was performed over a time course, and results are reported either as a catalytic efficiency kcat/KM for well-behaved first-order kinetics, or as observed rates as kobs for more complex kinetic behavior.
(§8) Catalytic efficiency (kcat/KM) estimations were used to rank the top cleaved substrates in the MSP-MS reaction. Peptides were quantified by mass spectrometric label-free quantitation from the MS1 precursor ion peak areas for each peptide. Enzyme progress curves were modeled from six-time point measurements in GraphPad Prism. Data were fitted using non-linear least squares fitting to the first order kinetics equation:
(§9) [formula] where Y=percent product formation or substrate consumption, and t=time. The observed rate is a function of the enzyme concentration [E0], and an observed catalytic efficiency (kcat/KM) in units M^−1s^−1

FAPα = target: T2, FAPα (Homo sapiens, UniProt Q12884); assay: 30-mer tandem linker library MSP-MS, FAPα; assay type: biochemical; details: at PGGP|AGIG and GP|AGLYAQ respectively
T2 construct: purchased R&D Systems (Bio-techne) 930-ADB-010
T2 sequence (Q12884 1-760): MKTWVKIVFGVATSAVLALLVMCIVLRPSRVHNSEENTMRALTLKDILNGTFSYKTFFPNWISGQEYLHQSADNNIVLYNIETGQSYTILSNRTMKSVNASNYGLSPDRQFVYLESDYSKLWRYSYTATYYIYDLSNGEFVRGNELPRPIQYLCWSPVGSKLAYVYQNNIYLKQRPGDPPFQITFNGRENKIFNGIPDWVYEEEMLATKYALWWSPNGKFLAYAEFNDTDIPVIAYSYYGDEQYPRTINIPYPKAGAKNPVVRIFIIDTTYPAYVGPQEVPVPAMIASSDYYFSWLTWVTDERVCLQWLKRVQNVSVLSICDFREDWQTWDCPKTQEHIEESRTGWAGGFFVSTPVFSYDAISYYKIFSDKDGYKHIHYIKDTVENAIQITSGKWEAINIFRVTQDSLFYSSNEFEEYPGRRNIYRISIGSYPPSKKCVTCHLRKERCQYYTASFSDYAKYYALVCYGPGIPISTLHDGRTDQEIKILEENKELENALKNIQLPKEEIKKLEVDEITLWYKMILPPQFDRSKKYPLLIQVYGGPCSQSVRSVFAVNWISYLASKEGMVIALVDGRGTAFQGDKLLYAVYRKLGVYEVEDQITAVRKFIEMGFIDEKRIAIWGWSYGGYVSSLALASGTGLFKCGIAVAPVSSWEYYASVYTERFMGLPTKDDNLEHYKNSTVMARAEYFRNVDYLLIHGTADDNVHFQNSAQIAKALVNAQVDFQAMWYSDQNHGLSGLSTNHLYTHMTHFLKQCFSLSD
Procedure: as §6, §4
FAPα activity was tested with fluorescence detection using a generic Z-GP-AMC substrate. For FRET assays, the final enzyme concentration was 5 nM and the buffer was 50 mM TRIS HCl, 1 M NaCl, 1 mg/mL BSA, pH 7.5.
as §7, §8, §9

Thrombin = target: T3, Thrombin (Homo sapiens, UniProt P00734); assay: 30-mer library counter-screening MSP-MS, Thrombin; assay type: biochemical
T3 construct: purchased R&D Systems (Bio-techne) 2196-SE-200
Procedure: as §6, §4
Thrombin was activated following the manufacturer's recommended conditions by pre-incubation with the enzyme with thermolysin for 15 min, and then the thermolysin was quenched with 1,10 phenanthroline treatment. Activated thrombin was assayed at 1.2 nM in activation buffer: 50 mM TRIS HCl, 10 mM CaCl2, 150 mM NaCl, 0.05% (w/v) Brij-35, pH 7.5.
(§10) Counter-screening was performed against the enzymes Thrombin, Factor Xa and Hepsin using this library as well, and for calibration of activity, a positive-control peptide bearing favorable motifs for these enzymes was also designed (ALU30-19).
as §8, §9
(§11) Counter-screening with Thrombin, Factor Xa and Hepsin was also performed following the same analysis. The library peptide Alu30-19 was designed to include authentic sites for each enzyme, for comparison of overall cleavage efficiency as well as cleavage site specificity within each motif. The substrate designed for Factor Xa has the motif FNPR|TFGS (SEQ ID NO: 248), derived from the Factor Xa cleavage site in Thrombin. The substrate motif for Thrombin was FPR|, a common tool substrate motif. The substrate motif for hepsin was RKRR|GSRG (SEQ ID NO: 249) from filaggrin.

Hepsin = target: T4, Hepsin (Homo sapiens, UniProt P05981); assay: 30-mer library counter-screening MSP-MS, Hepsin; assay type: biochemical
T4 construct: purchased R&D Systems (Bio-techne) 4776-SE
Procedure: as §6, §4
Hepsin was pre-activated overnight at 37° C. in the manufacturer recommended buffer: 100 mM TRIS, 10 mM CaCl2, 150 mM NaCl, 0.05% Brij-35, pH 8.0. Activity was measured with 2.4 or 24 nM enzyme in the buffer: 50 mM TRIS HCl at pH 7.4.
as §10, §8, §9, §11

T1 sequence (P07711 114-333): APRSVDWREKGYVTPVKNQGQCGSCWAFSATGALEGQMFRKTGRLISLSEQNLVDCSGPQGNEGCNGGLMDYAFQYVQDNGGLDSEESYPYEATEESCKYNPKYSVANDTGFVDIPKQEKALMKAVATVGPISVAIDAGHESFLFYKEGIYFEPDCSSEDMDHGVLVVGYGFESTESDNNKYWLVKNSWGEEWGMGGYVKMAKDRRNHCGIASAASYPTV
T4 sequence (P05981 163-417 limits assumed): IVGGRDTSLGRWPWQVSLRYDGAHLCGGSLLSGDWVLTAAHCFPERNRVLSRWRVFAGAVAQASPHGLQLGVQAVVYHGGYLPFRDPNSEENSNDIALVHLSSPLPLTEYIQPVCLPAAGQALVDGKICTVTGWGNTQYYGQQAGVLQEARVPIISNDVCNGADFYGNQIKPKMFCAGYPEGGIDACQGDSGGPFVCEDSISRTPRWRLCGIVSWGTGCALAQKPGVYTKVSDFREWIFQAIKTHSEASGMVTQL
T4 sequence (P05981 1-162 partner limits assumed): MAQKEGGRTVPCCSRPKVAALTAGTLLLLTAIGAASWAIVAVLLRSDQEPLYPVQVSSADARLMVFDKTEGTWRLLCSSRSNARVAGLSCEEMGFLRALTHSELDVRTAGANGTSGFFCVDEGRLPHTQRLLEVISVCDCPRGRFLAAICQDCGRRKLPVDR

| Sequence | Substrate cleavage activity, CT26-MMP9+ cell line ([1]; end-point screen) | Substrate cleavage activity, MC38 and CT26 parental cell lines ([1]; end-point screen) | Substrate cleavage activity, control myofibroblast cell line ([1]; end-point screen) | Secreted activity in conditioned media, steady-state kinetics [2] | Cell-associated activity, MC38 vs other cell lines ([3]; cell lysates) | Ratio of cleavage in tumor vs control cell lines, cell lysates ([3]; cell lysates assayed neat) [×] | Cleavage activity detected in cell lysates [3] | Cleavage of 8-mer FRET substrate by CTSL1 (CTSL1 [4]) | −1 site product formation by CTSL1 (CTSL1 [5]; matched 30-mer peptides SEQ ID NO: 207 (CTSL1_1) and 219 (CTSL1_2)) | Substrate cleavage activity in the end-point screen [1] | Secreted activity in myofibroblast conditioned media, steady-state kinetics ([2]; myofibroblast) | Cell-associated activity in myofibroblasts ([3]; cell lysates) | Activity in three tumor cell lines over myofibroblast cell line, cell lysates ([3]; cell lysates assayed neat) [fold] | Cleavage of motif by FAPα (FAPα) | Relative efficiency of 30-mer peptide cleavage by CTSL1 (CTSL1 [5]) | Relative efficiency of 30-mer peptide cleavage by thrombin (Thrombin) | Relative efficiency of cleavage by hepsin (Hepsin) |
| --- | --- | --- | --- | --- | --- | --- | --- | --- | --- | --- | --- | --- | --- | --- | --- | --- | --- |
| ALFKSSFP (also: Mca fluorophore and Dnp quencher, places not given here) [CTSL1_1, FRET substrate with Mca fluorophore and Dnp quencher] | undetectable activity | low activity | undetectable activity | no measurable activity above background | significantly greater in MC38 cells over the myofibroblast, CT26 parental, and CT26-MMP9+ cells | ~1 | detected in all of the cell lysates | highly efficiently | had a −1 site product | – | – | – | – | – | – | – | – |
| PGGPAGIG (also: Mca fluorophore and Dnp quencher, places not given here) [FAPα_1, FRET substrate with Mca fluorophore and Dnp quencher] | – | – | – | lower activity than that associated with the cell pellet | – | – | detected in all four cell lines | – | – | very low, but was still detected in all three tumor cell lines | no measurable secreted activity | did have cell-associated activity | 2 | able to cleave | – | – | – |
| RGGGPAGLYAQPLAQKLKSSALFKSSFPGG [Alu30-15] | – | – | – | – | – | – | – | – | – | – | – | – | – | – | lower CTSL1 activity | cleaved at lower efficiency | slightly higher hepsin susceptibility |
